Test results published in ChEMBL document CHEMBL1649315, “Extended-spectrum cephalosporinase in Acinetobacter baumannii” (Antimicrob Agents Chemother, 2010).
≈ marks a conversion by molar mass, not a printed value.

Columns and labels:
Escherichia coli [1] = assay: Antimicrobial activity against Escherichia coli TOP10 harboring pADC-33 plasmid with entire blaAmpC gene with alanine residue deletion at 215 position by Etest method; format: functional
Acinetobacter baumannii [2] = assay: Ratio of Kcat to Km for Acinetobacter baumannii ADC-33 beta-lactamase to Kcat to Km for Acinetobacter baumannii ADC-11 beta-lactamase
Escherichia coli [3] = assay: Antimicrobial activity against Escherichia coli TOP10 harboring pTOPO plasmid by Etest method; format: functional
Acinetobacter baumannii [4] = assay: Antimicrobial activity against Acinetobacter baumannii KI by Etest method; format: functional
Escherichia coli [5] = assay: Antimicrobial activity against Escherichia coli TOP10 harboring pADC-33 plasmid by Etest method; format: functional
Escherichia coli [6] = assay: Antimicrobial activity against Escherichia coli TOP10 harboring pADC-11 plasmid with entire blaAmpC gene by Etest method; format: functional
Acinetobacter baumannii [7] = assay: Antimicrobial activity against Acinetobacter baumannii CIP70.10 by Etest method; format: functional
Escherichia coli [8] = assay: Antimicrobial activity against Escherichia coli TOP10 harboring pADC-33 plasmid carrying entire blaAmpC gene with alanine residue deletion at 215 position and R210P substitution by Etest method; format: functional
Escherichia coli [9] = assay: Antimicrobial activity against Escherichia coli TOP10 harboring pADC-11 plasmid by Etest method; format: functional
Escherichia coli [10] = assay: Antimicrobial activity against Escherichia coli TOP10 harboring pADC-33 plasmid with entire blaAmpC gene by Etest method; format: functional
Escherichia coli [11] = assay: Antimicrobial activity against Escherichia coli TOP10 harboring pADC-11 plasmid carrying entire blaAmpC gene with alanine residue insertion at 215 position by Etest method; format: functional
Acinetobacter baumannii [12] = assay: Antimicrobial activity against Acinetobacter baumannii AYE expressing VEB-1 gene by Etest method; format: functional
Escherichia coli [13] = assay: Antimicrobial activity against Escherichia coli TOP10 harboring pADC-11 plasmid carrying entire blaAmpC gene with alanine residue insertion at 215 position and R210P substitution by Etest method; format: functional
Escherichia coli [14] = assay: Antimicrobial activity against Escherichia coli TOP10 harboring pADC-50 plasmid by Etest method; format: functional
Escherichia coli [15] = assay: Antimicrobial activity against Escherichia coli TOP10 harboring pADC-33 plasmid by Etest method in presence of clavulanic acid; format: functional
Escherichia coli [16] = assay: Antimicrobial activity against Escherichia coli TOP10 harboring pADC-33 plasmid carrying entire blaAmpC gene by Etest method in presence of clavulanic acid; format: functional
Escherichia coli [17] = assay: Antimicrobial activity against Escherichia coli TOP10 harboring pADC-11 plasmid by Etest method in presence of clavulanic acid; format: functional
Acinetobacter baumannii [18] = assay: Antimicrobial activity against Acinetobacter baumannii AYE expressing VEB-1 gene by Etest method in presence of clavulanic acid; format: functional
Acinetobacter baumannii [19] = assay: Antimicrobial activity against Acinetobacter baumannii CIP70.10 by Etest method in presence of clavulanic acid; format: functional
Escherichia coli [20] = assay: Antimicrobial activity against Escherichia coli TOP10 harboring pADC-11 plasmid carrying entire blaAmpC gene with alanine residue insertion at 215 position by Etest method in presence of clavulanic acid; format: functional
Escherichia coli [21] = assay: Antimicrobial activity against Escherichia coli TOP10 harboring pADC-33 plasmid carrying entire blaAmpC gene with alanine residue deletion at 215 position by Etest method in presence of clavulanic acid; format: functional
Acinetobacter baumannii [22] = assay: Antimicrobial activity against Acinetobacter baumannii KI by Etest method in presence of clavulanic acid; format: functional
Escherichia coli [23] = assay: Antimicrobial activity against Escherichia coli TOP10 harboring pTOPO plasmid by Etest method in presence of clavulanic acid; format: functional
Escherichia coli [24] = assay: Antimicrobial activity against Escherichia coli TOP10 harboring pADC-11 plasmid carrying entire blaAmpC gene with alanine residue deletion at 215 position and R210P substitution by Etest method in presence of clavulanic acid; format: functional
Escherichia coli [25] = assay: Antimicrobial activity against Escherichia coli TOP10 harboring pADC-50 plasmid by Etest method in presence of clavulanic acid; format: functional
Escherichia coli [26] = assay: Antimicrobial activity against Escherichia coli TOP10 harboring pADC-33 plasmid carrying entire blaAmpC gene with alanine residue deletion at 215 position and R210P substitution by Etest method in presence of clavulanic acid; format: functional
Escherichia coli [27] = assay: Antimicrobial activity against Escherichia coli TOP10 harboring pADC-11 plasmid carrying entire blaAmpC gene by Etest method in presence of clavulanic acid; format: functional
[28] = tested on: CCN1CCN(C(=O)N[C@@H](C(=O)N[C@@H]2C(=O)N3[C@@H]2SC(C)(C)[C@@H]3C(=O)O)c2ccccc2)C(=O)C1=O; assay: (§1) Ratio of Kcat to Km for Acinetobacter baumannii ADC-33 beta-lactamase
[29] = tested on: CC(=O)OCC1=C(C(=O)O)N2C(=O)[C@@H](NC(=O)Cc3cccs3)[C@H]2SC1; assay: as §1
[30] = tested on: CO/N=C(\C(=O)N[C@@H]1C(=O)N2C(C(=O)[O-])=C(C[n+]3cccc4c3CCC4)CS[C@H]12)c1csc(N)n1; assay: as §1
[31] = tested on: CC1(C)S[C@@H]2[C@H](NC(=O)[C@H](N)c3ccccc3)C(=O)N2[C@H]1C(=O)O; assay: as §1
[32] = tested on: CC1(C)S[C@@H]2[C@H](NC(=O)Cc3ccccc3)C(=O)N2[C@H]1C(=O)O; assay: as §1
[33] = tested on: O=C(Cc1cccs1)N[C@@H]1C(=O)N2C(C(=O)[O-])=C(C[n+]3ccccc3)CS[C@H]12; assay: as §1
[34] = tested on: CCN1CCN(C(=O)N[C@@H](C(=O)N[C@@H]2C(=O)N3[C@@H]2SC(C)(C)[C@@H]3C(=O)O)c2ccccc2)C(=O)C1=O; assay: (§2) Activity of Acinetobacter baumannii ADC-33 beta-lactamase
[35] = tested on: CC(=O)OCC1=C(C(=O)O)N2C(=O)[C@@H](NC(=O)Cc3cccs3)[C@H]2SC1; assay: as §2
[36] = tested on: CO[C@@]1(NC(=O)Cc2cccs2)C(=O)N2C(C(=O)O)=C(COC(N)=O)CS[C@@H]21; assay: as §2
[37] = tested on: CO/N=C(\C(=O)N[C@@H]1C(=O)N2C(C(=O)[O-])=C(C[n+]3cccc4c3CCC4)CS[C@H]12)c1csc(N)n1; assay: as §2
[38] = tested on: CC1(C)S[C@@H]2[C@H](NC(=O)[C@H](N)c3ccccc3)C(=O)N2[C@H]1C(=O)O; assay: as §2
[39] = tested on: CC1(C)S[C@@H]2[C@H](NC(=O)Cc3ccccc3)C(=O)N2[C@H]1C(=O)O; assay: as §2
[40] = tested on: CC(C)(O/N=C(\C(=O)N[C@@H]1C(=O)N2C(C(=O)[O-])=C(C[n+]3ccccc3)CS[C@H]12)c1csc(N)n1)C(=O)O; assay: as §2
[41] = tested on: O=C(Cc1cccs1)N[C@@H]1C(=O)N2C(C(=O)[O-])=C(C[n+]3ccccc3)CS[C@H]12; assay: as §2
[42] = tested on: CO[C@@]1(NC(=O)Cc2cccs2)C(=O)N2C(C(=O)O)=C(COC(N)=O)CS[C@@H]21; assay: (§3) Ratio of Kcat to Ki for Acinetobacter baumannii ADC-33 beta-lactamase
[43] = tested on: CO/N=C(\C(=O)N[C@@H]1C(=O)N2C(C(=O)O)=C(COC(C)=O)CS[C@H]12)c1csc(N)n1; assay: as §3

## C[C@@H](O)[C@H]1C(=O)N2C(C(=O)O)=C(SCCNC=N)C[C@H]12 [IMIPENEM ANHYDROUS]
Escherichia coli [1]
  MIC: 0.5 µg/mL (≈ 1.67 µM)
Acinetobacter baumannii [2]
  kcat/Km: 800000 M⁻¹ s⁻¹
Escherichia coli [3]
  MIC: 0.125 µg/mL (≈ 0.418 µM)
Acinetobacter baumannii [4]
  MIC: 2 µg/mL (≈ 6.68 µM)
Escherichia coli [5]
  MIC: 0.25 µg/mL (≈ 0.835 µM)
Escherichia coli [6]
  MIC: 0.38 µg/mL (≈ 1.27 µM)
Acinetobacter baumannii [7]
  MIC: 0.25 µg/mL (≈ 0.835 µM)
Escherichia coli [8]
  MIC: 0.25 µg/mL (≈ 0.835 µM)
Escherichia coli [9]
  MIC: 0.19 µg/mL (≈ 0.635 µM)
Escherichia coli [10]
  MIC: 0.5 µg/mL (≈ 1.67 µM)
Escherichia coli [11]
  MIC: 0.38 µg/mL (≈ 1.27 µM)
Acinetobacter baumannii [12]
  MIC: 1 µg/mL (≈ 3.34 µM)

## C[C@@H](O)[C@H]1C(=O)N2C(C(=O)O)=C(S[C@@H]3CN[C@H](C(=O)N(C)C)C3)[C@H](C)[C@H]12 [MEROPENEM]
Escherichia coli [1]
  MIC: 0.032 µg/mL (≈ 0.0834 µM)
Escherichia coli [3]
  MIC: 0.023 µg/mL (≈ 0.06 µM)
Escherichia coli [13]
  MIC: 0.032 µg/mL (≈ 0.0834 µM)
Acinetobacter baumannii [4]
  MIC: 2 µg/mL (≈ 5.22 µM)
Escherichia coli [5]
  MIC: 0.023 µg/mL (≈ 0.06 µM)
Escherichia coli [6]
  MIC: 0.032 µg/mL (≈ 0.0834 µM)
Acinetobacter baumannii [7]
  MIC: 0.25 µg/mL (≈ 0.652 µM)
Escherichia coli [14]
  MIC: 0.023 µg/mL (≈ 0.06 µM)
Escherichia coli [8]
  MIC: 0.032 µg/mL (≈ 0.0834 µM)
Escherichia coli [9]
  MIC: 0.023 µg/mL (≈ 0.06 µM)
Escherichia coli [10]
  MIC: 0.032 µg/mL (≈ 0.0834 µM)
Escherichia coli [11]
  MIC: 0.032 µg/mL (≈ 0.0834 µM)
Acinetobacter baumannii [12]
  MIC: 1 µg/mL (≈ 2.61 µM)

## CC1(C)S[C@@H]2[C@H](NC(=O)[C@H](C(=O)O)c3ccsc3)C(=O)N2[C@H]1C(=O)O [TICARCILLIN]
Escherichia coli [15]
  MIC: 64 µg/mL
Escherichia coli [1]
  MIC: 128 µg/mL (≈ 333 µM)
Escherichia coli [16]
  MIC: > 256 µg/mL
Escherichia coli [17]
  MIC: 8 µg/mL
Escherichia coli [3]
  MIC: 2 µg/mL (≈ 5.2 µM)
Acinetobacter baumannii [18]
  MIC: 128 µg/mL
Escherichia coli [13]
  MIC: > 256 µg/mL
Acinetobacter baumannii [19]
  MIC: 8 µg/mL
Acinetobacter baumannii [4]
  MIC: > 256 µg/mL
Escherichia coli [5]
  MIC: 64 µg/mL (≈ 166 µM)
Escherichia coli [6]
  MIC: 256 µg/mL (≈ 666 µM)
Acinetobacter baumannii [7]
  MIC: 8 µg/mL (≈ 20.8 µM)
Escherichia coli [14]
  MIC: 8 µg/mL (≈ 20.8 µM)
Escherichia coli [8]
  MIC: 128 µg/mL (≈ 333 µM)
Escherichia coli [9]
  MIC: 8 µg/mL (≈ 20.8 µM)
Escherichia coli [20]
  MIC: > 256 µg/mL
Escherichia coli [21]
  MIC: 128 µg/mL
Acinetobacter baumannii [22]
  MIC: 64 µg/mL
Escherichia coli [10]
  MIC: > 256 µg/mL
Escherichia coli [11]
  MIC: > 256 µg/mL
Escherichia coli [23]
  MIC: 2 µg/mL
Escherichia coli [24]
  MIC: > 256 µg/mL
Acinetobacter baumannii [12]
  MIC: > 256 µg/mL
Escherichia coli [25]
  MIC: 8 µg/mL
Escherichia coli [26]
  MIC: 128 µg/mL
Escherichia coli [27]
  MIC: 256 µg/mL

## Beta-lactamase ADC-33 (Acinetobacter baumannii) (from UniProt B2ZTR6)
[28]
  kcat/Km: 250000 M⁻¹ s⁻¹
[29]
  kcat/Km: 1e+06 M⁻¹ s⁻¹
[30]
  kcat/Km: 50000 M⁻¹ s⁻¹
[31]
  kcat/Km: 500000 M⁻¹ s⁻¹
[32]
  kcat/Km: 5e+06 M⁻¹ s⁻¹
[33]
  kcat/Km: 2e+06 M⁻¹ s⁻¹
[34]
  Km: 16 µM
  kcat: 4 s⁻¹
[35]
  Km: 120 µM
  kcat: 140 s⁻¹
[36]
  kcat: 0.3 s⁻¹
[37]
  Km: 700 µM
  kcat: 35 s⁻¹
[38]
  Km: 9 µM
  kcat: 4 s⁻¹
[39]
  Km: 3 µM
[40]
  Km: 30 µM
  kcat: 4 s⁻¹
[41]
  Km: 100 µM
  kcat: 220 s⁻¹
[42]
  kcat/Km: 3e+06 M⁻¹ s⁻¹
[43]
  kcat/Km: 2e+06 M⁻¹ s⁻¹
